Experimental data published in patent US12139499B2, “Heteroaryl compounds for treating Huntington's disease” (PTC THERAPEUTICS, INC., priority 2018, dated 2024).
pIC50: −log10 of the molar value.

These compounds were tested on Endogenous Huntingtin Protein (assay: Endogenous Huntingtin Protein Assay (ELISA-based MSD electrochemiluminescence)). Conditions: Table 1.
Format: cell-based
How it was run: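 Huntingtin was captured overnight at 4 °C on plates coated with 1 μg/mL MW1 (polyQ-expanded) or MAB2166 antibody and BSA-blocked. Detection used a rabbit monoclonal and then a SULFO-TAG goat anti-rabbit antibody (0.25 μg/mL, 1 h each, room temperature). Signal was read by electrochemiluminescence.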

Question: With Oc1cc(-c2cn[nH]c2)ccc1-c1cc2sc(N3C[C@H]4CCNC[C@H]43)nc2nn1 [Compound 386, 2-{6-[(1S,6R)-3,8-diazabicyclo[4.2.0]octan-8-yl][1,3]thiazolo[4,5-c]pyridazin-3-yl}-5-(1H-pyrazol-4-yl)phenol] as the compound, how does the pIC50 read?
Answer: ≥ 7.00

Question: Cc1cn2cc(-c3cc4sc(N(C)C5CC(C)(C)NC(C)(C)C5)nc4cn3)cc(C#N)c2n1 [Compound 179, 2-methyl-6-{2-[methyl(2,2,6,6-tetramethylpiperidin-4-yl)amino][1,3]thiazolo[4,5-c]pyridin-6-yl}imidazo[1,2-a]pyridine-8-carbonitrile] was tested. Which pIC50 did it give?
Answer: ≥ 7.00

Question: How did the pIC50 turn out when CNC1CC(N(C)c2nc3nnc(-c4ccc(-c5cn[nH]c5)cc4O)cc3s2)C1 (centres unmarked) [Compound 350, 2-(6-{methyl[3-(methylamino)cyclobutyl]amino}[1,3]thiazolo[4,5-c]pyridazin-3-yl)-5-(1H-pyrazol-4-yl)phenol] was run?
Answer: 6.30 to 7.00

Question: With Cc1cn2nc(-c3cnc4nc(N(C)C5CC(C)(C)NC(C)(C)C5)sc4n3)cc(C)c2n1 [Compound 162, 6-(2,8-dimethylimidazo[1,2-b]pyridazin-6-yl)-N-methyl-N-(2,2,6,6-tetramethylpiperidin-4-yl)[1,3]thiazolo[4,5-b]pyrazin-2-amine] as the compound, how does the pIC50 read?
Answer: ≥ 7.00

Question: Cc1cn2nc(-c3cc4sc(N(C)C5CC(C)(C)NC(C)(C)C5)nc4cn3)cc(C)c2n1 [Compound 90, 6-(2,8-dimethylimidazo[1,2-b]pyridazin-6-yl)-N-methyl-N-(2,2,6,6-tetramethylpiperidin-4-yl)[1,3]thiazolo[4,5-c]pyridin-2-amine] was tested. Which pIC50 did it give?
Answer: 6.30 to 7.00

Question: With CN(c1nc2ccc(-c3cc(F)c4nn(C)cc4c3)nc2s1)C1CC(C)(C)NC(C)(C)C1 [Compound 128, 5-(7-fluoro-2-methyl-2H-indazol-5-yl)-N-methyl-N-(2,2,6,6-tetramethylpiperidin-4-yl)[1,3]thiazolo[5,4-b]pyridin-2-amine] as the compound, how does the pIC50 read?
Answer: 6.30 to 7.00

Question: How did the pIC50 turn out when CN1CCC2(CCN(c3nc4nnc(-c5ccc(-c6cn[nH]c6)cc5O)cc4s3)C2)C1 (centres unmarked) [Compound 340, 2-[6-(7-methyl-2,7-diazaspiro[4.4]nonan-2-yl)[1,3]thiazolo[4.5-c]pyridazin-3-yl]-5-(1H-pyrazol-4-yl)phenol] was run?
Answer: 5.52 to 6.00

Question: How did the pIC50 turn out when CN1C[C@H](F)[C@@H](N(C)c2nc3nnc(-c4ccc(-c5cn[nH]c5)cc4O)cc3s2)C1 [Compound 382, 2-(6-{[(3S,4S)-4-fluoro-1-methylpyrrolidin-3-yl](methyl)amino}[1,3]thiazolo[4,5-c]pyridazin-3-yl)-5-(1H-pyrazol-4-yl)phenol] was run?
Answer: 6.30 to 7.00

Question: With C[C@H]1C[C@@H](N(C)c2nc3nnc(-c4ccc(-c5cn[nH]c5)cc4O)cc3s2)CCN1 [Compound 394, 2-(6-{methyl[(2S,4S)-2-methylpiperidin-4-yl]amino}[1,3]thiazolo[4,5-c]pyridazin-3-yl)-5-(1H-pyrazol-4-yl)phenol] as the compound, how does the pIC50 read?
Answer: ≥ 7.00

Question: How did the pIC50 turn out when CN(c1nc2ccc(-c3ccc4nn(C)cc4c3)cc2s1)C1CCNCC1 [Compound 8, N-methyl-6-(2-methyl-2H-indazol-5-yl)-N-(piperidin-4-yl)-1,3-benzothiazol-2-amine] was run?
Answer: 6.30 to 7.00

Question: Cc1cc(-c2ccc3nc(C4=CCNCC4)sc3c2)cc2cn(C)nc12 [Compound 18, 6-(2,7-dimethyl-2H-indazol-5-yl)-2-(1,2,3,6-tetrahydropyridin-4-yl)-1,3-benzothiazole] was tested. Which pIC50 did it give?
Answer: 6.30 to 7.00

Question: Cc1cn2nc(-c3cc(F)c4nc(OC5CC(C)NC(C)C5)sc4c3)cc(C)c2n1 (centres unmarked) [Compound 135, 6-{2-[(2,6-dimethylpiperidin-4-yl)oxy]-4-fluoro-1,3-benzothiazol-6-yl}-2,8-dimethylimidazo[1,2-b]pyridazine] was tested. Which pIC50 did it give?
Answer: ≥ 7.00

Question: Cc1cn2nc(-c3cc(F)c4nc(C5CCN(C)CC5)sc4c3)cc(C)c2n1 [Compound 107, 6-[4-fluoro-2-(1-methylpiperidin-4-yl)-1,3-benzothiazol-6-yl]-2,8-dimethylimidazo[1,2-b]pyridazine] was tested. Which pIC50 did it give?
Answer: ≥ 7.00

Question: How did the pIC50 turn out when Cn1cc2cc(-c3cc4sc(C5CCNCC5)nc4cn3)cc(F)c2n1 [Compound 76, 6-(7-fluoro-2-methyl-2H-indazol-5-yl)-2-(piperidin-4-yl)[1,3]thiazolo[4,5-c]pyridine] was run?
Answer: 6.30 to 7.00

Question: Cc1cn2nc(-c3cc(F)c4nc(N(C)C5CC6CCC(C5)N6)sc4c3)ccc2n1 (stereo not drawn) [Compound 209, N-[(3-exo)-8-azabicyclo[3.2.1]oct-3-yl]-4-fluoro-N-methyl-6-(2-methylimidazo[1,2-b]pyridazin-6-yl)-1,3-benzothiazol-2-amine] was tested. Which pIC50 did it give?
Answer: ≥ 7.00

Question: COc1cc(-c2ncc3nc(N(C)C4CC(C)(C)NC(C)(C)C4)sc3n2)cc2cn(C)nc12 [Compound 197, 5-(7-methoxy-2-methyl-2H-indazol-5-yl)-N-methyl-N-(2,2,6,6-tetramethylpiperidin-4-yl)[1,3]thiazolo[5,4-d]pyrimidin-2-amine] was tested. Which pIC50 did it give?
Answer: 6.30 to 7.00

Question: CN(c1nc2ccc(-c3ccc4nn(C)cc4c3)cc2s1)C1CCNC1 (centres unmarked) [Compound 38, N-methyl-6-(2-methyl-2H-indazol-5-yl)-N-(pyrrolidin-3-yl)-1,3-benzothiazol-2-amine] was tested. Which pIC50 did it give?
Answer: 5.52 to 6.00

Question: How did the pIC50 turn out when Cc1cn2cc(-c3cc(F)c4nc(C5=CCNCC5)sc4c3)cc(C)c2n1 [Compound 71, 6-(2,8-dimethylimidazo[1,2-a]pyridin-6-yl)-4-fluoro-2-(1,2,3,6-tetrahydropyridin-4-yl)-1,3-benzothiazole] was run?
Answer: 6.30 to 7.00

Question: With Cn1cc2cc(-c3cc(F)c4nc(C5CCNCC5)sc4c3)cc(F)c2n1 [Compound 126, 4-fluoro-6-(7-fluoro-2-methyl-2H-indazol-5-yl)-2-(piperidin-4-yl)-1,3-benzothiazole] as the compound, how does the pIC50 read?
Answer: ≥ 7.00

Question: With Cc1cn2cc(-c3ccc4nc(C5CCNCC5)sc4c3)cc(F)c2n1 [Compound 113, 6-(8-fluoro-2-methylimidazo[1,2-a]pyridin-6-yl)-2-(piperidin-4-yl)-1,3-benzothiazole] as the compound, how does the pIC50 read?
Answer: ≥ 7.00

Question: With Cc1cn2cc(-c3cc(F)c4nc(C5=CCNCC5)sc4c3)nc(C)c2n1 [Compound 53, 6-[4-fluoro-2-(1,2,3,6-tetrahydropyridin-4-yl)-1,3-benzothiazol-6-yl]-2,8-dimethylimidazo[1,2-a]pyrazine] as the compound, how does the pIC50 read?
Answer: 6.30 to 7.00

Question: How did the pIC50 turn out when Cn1cc2cc(-c3nc4ncc(C5CCNCC5)cc4s3)ccc2n1 [Compound 43, 2-(2-methyl-2H-indazol-5-yl)-6-(piperidin-4-yl)[1,3]thiazolo[4,5-b]pyridine] was run?
Answer: 6.30 to 7.00

Question: With Cc1cn2nc(-c3cc(F)c4nc(C5CCNCC5)sc4c3)cc(C(N)=O)c2n1 [Compound 224, 6-[4-fluoro-2-(piperidin-4-yl)-1,3-benzothiazol-6-yl]-2-methylimidazo[1,2-b]pyridazine-8-carboxamide] as the compound, how does the pIC50 read?
Answer: ≥ 7.00

Question: Cn1cc2cc(-c3cc4sc(NC5CC6CCC(C5)N6)nc4cn3)cc(C#N)c2n1 (stereo not drawn) [Compound 213, 5-{2-[(3-exo)-8-azabicyclo[3.2.1]oct-3-ylamino][1,3]thiazolo[4,5-c]pyridin-6-yl}-2-methyl-2H-indazole-7-carbonitrile] was tested. Which pIC50 did it give?
Answer: ≥ 7.00

Question: How did the pIC50 turn out when “5-{2-[(1,5-dimethyl-8-azabicyclo[3.2.1]oct-3-yl)(methyl)amino][1,3]thiazolo[5,4-d]pyrimidin-5-yl)-2-methyl-2H-indazole-7-carbonitrile [Compound 254]” was run?
Answer: ≥ 7.00

Question: With CN1CCC[C@H](N(C)c2nc3nnc(-c4ccc(-c5cn[nH]c5)cc4O)cc3s2)C1 [Compound 352, 2-(6-{methyl[(3S)-1-methylpiperidin-3-yl]amino}[1,3]thiazolo[4,5-c]pyridazin-3-yl)-5-(1H-pyrazol-4-yl)phenol] as the compound, how does the pIC50 read?
Answer: ≥ 7.00

Question: With CN(c1nc2nnc(-c3ccc(-c4cn[nH]c4)cc3O)cc2s1)C1CCNC1 (centres unmarked) [Compound 374, 2-{6-[methyl(pyrrolidin-3-yl)amino][1,3]thiazolo[4,5-c]pyridazin-3-yl}-5-(1H-pyrazol-4-yl)phenol] as the compound, how does the pIC50 read?
Answer: ≥ 7.00

Question: How did the pIC50 turn out when Cc1cn2cc(-c3ccc4nc(N(C)C5CC(C)(C)NC(C)(C)C5)sc4n3)cc(F)c2n1 [Compound 177, 5-(8-fluoro-2-methylimidazo[1,2-a]pyridin-6-yl)-N-methyl-N-(2,2,6,6-tetramethylpiperidin-4-yl)[1,3]thiazolo[5,4-b]pyridin-2-amine] was run?
Answer: ≥ 7.00

Question: How did the pIC50 turn out when Cc1cn2cc(-c3cc4sc(N(C)C5CC(C)(C)NC(C)(C)C5)nc4cn3)cc(C(F)(F)F)c2n1 [Compound 116, N-methyl-6-[2-methyl-8-(trifluoromethyl)imidazo[1,2-a]pyridin-6-yl]-N-(2,2,6,6-tetramethylpiperidin-4-yl)[1,3]thiazolo[4,5-c]pyridin-2-amine] was run?
Answer: 6.30 to 7.00

Question: How did the pIC50 turn out when Cn1cc2cc(-c3ccc4nc(C5CCCNCC5)sc4c3)ccc2n1 (centres unmarked) [Compound 42, 2-(azepan-4-yl)-6-(2-methyl-2H-indazol-5-yl)-1,3-benzothiazole] was run?
Answer: 6.30 to 7.00

Question: Cc1cc(-c2cc3sc(N(C)C4CC(C)(C)NC(C)(C)C4)nc3cn2)cc2cn(C)nc12 [Compound 31, 6-(2,7-dimethyl-2H-indazol-5-yl)-N-methyl-N-(2,2,6,6-tetramethylpiperidin-4-yl)[1,3]thiazolo[4,5-c]pyridin-2-amine] was tested. Which pIC50 did it give?
Answer: ≥ 7.00

Question: How did the pIC50 turn out when CN(c1nc2cnc(-c3cc(C#N)c4nn(C)cc4c3)cc2s1)C1CC2CCC(C1)N2 (stereo not drawn) [Compound 206, 5-{2-[(3-exo)-8-azabicyclo[3.2.1]oct-3-yl(methyl)amino][1,3]thiazolo[4,5-c]pyridin-6-yl}-2-methyl-2H-indazole-7-carbonitrile] was run?
Answer: ≥ 7.00

Question: How did the pIC50 turn out when Oc1cc(-c2cn[nH]c2)ccc1-c1cc2sc(N3CC[C@H]4CNCC[C@H]43)nc2nn1 [Compound 344, 2-{6-[(3aS,7aR)-octahydro-1H-pyrrolo[3,2-c]pyridin-1-yl][1,3]thiazolo[4,5-c]pyridazin-3-yl]-5-(1H-pyrazol-4-yl)phenol] was run?
Answer: ≥ 7.00

Question: With Cc1cn2nc(-c3cc(F)c4nc(OC5CCN(C)CC5)sc4c3)cc(C)c2n1 [Compound 320, 6-{4-fluoro-2-[(1-methylpiperidin-4-yl)oxy]-1,3-benzothiazol-6-yl}-2,8-dimethylimidazo[1,2-b]pyridazine] as the compound, how does the pIC50 read?
Answer: ≥ 7.00

Question: Cc1cc2nc(-c3cc(F)c4nc(N(C)C5CCNCC5)sc4c3)ccn2n1 [Compound 250, 4-fluoro-N-methyl-6-(2-methylpyrazolo[1,5-a]pyrimidin-5-yl)-N-(piperidin-4-yl)-1,3-benzothiazol-2-amine] was tested. Which pIC50 did it give?
Answer: 6.30 to 7.00
